Test results taken from patent publication US20130030048A1, “COMPOSITION FOR INDUCING MULTIPLE NUCLEAR DIVISION OF CELLS” (priority 2010, published 2013).

System: Human Mammary Epithelial (HME) 50 HT cell line
Test: Multiple nuclear divisions in cultured HME 50 HT cells
Format: cell-based
Conditions: HME 50 HT cells in serum-free medium; FIGS. 3 and 4
Experimental: Such a culture medium was treated with the composition comprising the compound of formula II obtained in the Example 1 and the compound of formula III obtained in the Examples 2 to 5, respectively.
And, it was found from the photomicrographs that the cells appeared very healthy and unstressed.

| Structure (SMILES) | multiple nuclear divisions in the cell (stained-cell image) |
| --- | --- |
| CCC1(N)C(=O)COC=C1C (centres unmarked) [compound of formula III] | multiple nuclear divisions occurred in the cell |
| C=CC1(N)C(=O)COC=C1C (centres unmarked) [compound of formula II] | multiple nuclear divisions occurred in the cell |
